Source: article PMC4474554 (PLoS ONE, 2015)

System: EGFR kinases (all the variants tested)
Assay: In vitro binding assay (ATP beads), all variant EGFR kinases
Settings: at a concentration of 1000 μM

## Nc1ncnc2c1ncn2[C@@H]1O[C@H](COP(=O)(O)OP(=O)(O)OP(=O)(O)O)[C@@H](O)[C@H]1O [ATP]
  binding of exogenous ATP to EGFR kinases: weakly bound
